Experimental data: patent US20250129027A1 (APOGEE PHARMACEUTICALS, INC., priority 2023, published 2025)
≈ marks a conversion by molar mass, not a printed value. Read-outs that look alike come from different tables or passages of the source.

Columns and labels:
[1] = Plasma stability (LC-MS/MS, % parent compound remaining, half-life); type: in vitro ADME; conditions: human plasma; for half-life at 1 μM: 37° C., 0-240 mins, read-out: Human Plasma Stability (t1/2, min); for plasma stability and/or aqueous solubility compared to reference compound URB597: see Table 5
Protocol: Exemplary compounds described herewith were assayed for plasma stability (various species).
Plasma was removed from deep freezer and allowed to thaw at room temperature (or at 37° C. if needed). Plasma was then centrifuged at 4,000 rpm at RT for 10 min and supernatant was collected and used for the assay: • Drug test tubes: 297 μL plasma/drug test tube, duplicate/drug. • Blank test tubes: 297 μL plasma/Blank test tube, duplicate, too. (Optional, if assay system is stable and consistent) • T0 plasma tube: […] X No. of total sample tubes+50 μL extra for T0 extraction. • (Note: equivalent proportion of solvent mixture as added in drug test tubes will be added before T0 extraction!)
Take out the pre-warmed plasma tubes from the 37° C. incubator. Add 3 μL of 100 μM stock solution (or, equivalent proportion of the solvent mixture to T0 plasma tube for T0 extraction) to each corresponding sample tubes in order, vortex gently (3×) to mix. Finish the sample tubes orderly and quickly, then transfer them to the Thermomixer (program & 37° C. ready), and start the Thermomixer. Record starting time on paper & start the timer for 15 min for the 1st sampling time point.
Now add the equivalent amount of solvent mixture to the T0 plasma tube, mix, and transfer 50 μL plasma to each of the T0 extracting tubes, vortex 20s and placed on ice. Vortex 10s again before centrifuging the samples at 14,000 rpm for 5 min at 4° C.
Repeat the above procedures at each time point (15, 30, 60, 120, 240 min) by transferring 50 μL plasma samples from the testing tubes to the corresponding extracting tubes, in the same order and time scheme as in the addition of the drug to the plasma samples at the beginning of the study.
• Kel=Slope of LN % PCR vs time
Half life (t½)=0.693/Kel (1)

human recombinant MAGL = human recombinant MAGL (Homo sapiens (Human), UniProt Q99685); experiment: In vitro inhibition of MAGL activity (inhibitor screening kit, 4-nitrophenylacetate); type: biochemical; conditions: human recombinant MAGL
How it was run: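 Colorimetric kit assay: recombinant human MAGL hydrolyses 4-nitrophenylacetate to 4-nitrophenol, read by absorbance at 405-412 nm. Inhibition given as percentage of signal in treated versus untreated MAGL control.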

[2] = oral dosing, dose of 250 mg/kg; cited from earlier work
[3] = Aqueous solubility in PBS buffer pH 7.4 (LC-MS); type: physicochemical; conditions: phosphate buffer, kinetic from dmso stock, PBS buffer pH 7.4, room temperature, spiked at 100 μM from DMSO stock
Protocol: Compounds as described herewith were analyzed for their aqueous solubility.
The aqueous solubility of compounds were determined using standard protocols. To illustrate the experimental protocol, the analysis of a representative compound is described. Exemplary compound of Example 158 (MW: 380.4 g/mol) was analyzed in a buffer system at specified pH (phosphate buffer, pH 7.4). This was accomplished by spiking a DMSO stock solution of the test compound at a final concentration of 100 μM in buffer.
Solubility calculation: This is a quantitative assay. The mixture at the end of the assay is filtered by 0.22 micron syringe filter and after 5× dilution in diluent, it was analyzed versus a calibration curve using LC-MS.

human recombinant FAAH = human recombinant FAAH (Homo sapiens (Human), UniProt O00519); experiment: In vitro inhibition of FAAH activity (fluorescent inhibitor screening kit, AMC arachidonoyl amide); type: biochemical
How it was run: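 Fluorogenic kit assay: AMC arachidonoyl amide is cleaved by human recombinant FAAH, read at 340-360/450-465 nm. Percent inhibition versus non-treated control; IC50 values derived from multiple compound concentrations where tested.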

[4] = Pharmacokinetic study in rats, IV and oral gavage, with brain penetration; type: in vivo, rat; conditions: for Cmax exposure relative to URB597: 10 mg/kg PO vs URB597 at 250 mg/kg; for clearance: read-out: CLp; for Vd: read-out: Vdss; for improvement in oral exposure maximums compared to URB597: dose-adjusted (25× lower dose, 10× Cmax); for Kp at 0.5 h: read-out: Brain/Plasma ratio (0.5 h); for Kp at 1 h: read-out: Brain/Plasma ratio (1 h)
Protocol: In pharmacokinetic (PK) studies, animals were administered compounds of the present disclosure and PK parameters were measured. Rats (male, Sprague Dawley) were administered compound of Example 158 at a dose of 1.0 mg/kg intravenously (IV) or 10 mg/kg via oral gavage (PO). Blood samples were taken at t=0.083, 0.25. 0.5, 1, 2, 4, 6, 8 and 24 h post-dose and the plasma was analyzed for concentration of test article (compound of Example 158). Using standard analytical methodology (HPLC analysis), the following parameters were obtained:
Rats were administered compound of Example 172 at a dose of 1.0 mg/kg intravenously (IV) or 10 mg/kg via oral gavage (PO). Using standard analytical methodology (HPLC analysis), the following parameters were obtained: […]

[5] = FAAH, values as listed in Table 5, read-out: IC50
[6] = human recombinant FAAH, read-out: Inhibition on FAAH activity (IC50)
[7] = Sprague Dawley, plasma, rat (SD, male), IV 1.0 mg/kg, read-out: AUC0-Y (ng h/mL), IV
[8] = Sprague Dawley, plasma, rat (SD, male), IV 1.0 mg/kg
[9] = Sprague Dawley, plasma, rat (SD, male), IV 1.0 mg/kg, read-out: t1/2 (h), IV (converted)
[10] = male, Sprague Dawley, brain, rat
[11] = male, Sprague Dawley, plasma, rat, PO 10.0 mg/kg
[12] = male, Sprague Dawley, plasma, rat, PO 10.0 mg/kg, read-out: AUC0-Y (ng h/mL), PO
[13] = male, Sprague Dawley, plasma, rat, PO 10.0 mg/kg, read-out: Cmax
[14] = male, Sprague Dawley, plasma, rat, PO 10.0 mg/kg, read-out: Cmax (ng/mL)
[15] = male, Sprague Dawley, plasma, rat, PO 10.0 mg/kg, read-out: t1/2 (h), PO (converted)
[16] = rat, PO 10.0 mg/kg vs IV 1.0 mg/kg
[17] = male, Sprague Dawley, brain, intravenous, 1 mg/kg, rat

human recombinant FAAH, sequence (O00519 whole entry): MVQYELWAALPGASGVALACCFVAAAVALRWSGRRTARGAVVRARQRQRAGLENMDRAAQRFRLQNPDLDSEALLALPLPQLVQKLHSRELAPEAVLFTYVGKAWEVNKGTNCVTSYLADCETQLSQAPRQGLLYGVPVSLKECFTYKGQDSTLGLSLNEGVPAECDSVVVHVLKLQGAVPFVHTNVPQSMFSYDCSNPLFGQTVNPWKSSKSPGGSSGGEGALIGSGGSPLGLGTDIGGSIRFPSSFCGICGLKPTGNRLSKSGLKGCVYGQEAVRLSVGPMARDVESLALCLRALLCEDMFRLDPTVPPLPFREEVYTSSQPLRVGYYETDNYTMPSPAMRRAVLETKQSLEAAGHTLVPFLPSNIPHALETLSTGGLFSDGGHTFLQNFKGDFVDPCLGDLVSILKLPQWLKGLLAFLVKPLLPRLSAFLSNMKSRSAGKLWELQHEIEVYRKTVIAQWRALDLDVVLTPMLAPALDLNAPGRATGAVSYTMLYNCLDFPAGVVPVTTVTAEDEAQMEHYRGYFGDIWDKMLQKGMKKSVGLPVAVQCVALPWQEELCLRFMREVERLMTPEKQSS
human recombinant MAGL, sequence (Q99685 whole entry): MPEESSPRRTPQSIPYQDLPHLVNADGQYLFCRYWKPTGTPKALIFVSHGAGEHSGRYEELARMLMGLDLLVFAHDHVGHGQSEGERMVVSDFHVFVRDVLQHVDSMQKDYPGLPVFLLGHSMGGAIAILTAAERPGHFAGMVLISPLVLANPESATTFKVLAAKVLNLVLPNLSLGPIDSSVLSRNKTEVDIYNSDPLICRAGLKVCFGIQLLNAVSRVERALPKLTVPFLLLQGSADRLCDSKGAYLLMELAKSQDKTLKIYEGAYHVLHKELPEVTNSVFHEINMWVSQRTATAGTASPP

Compound | half-life at 1 μM [1] | IC50 (human recombinant MAGL) | solubility [3] | plasma stability and/or aqueous solubility compared to reference compound URB597 [1] | IC50 (human recombinant FAAH; [5]) | IC50 (human recombinant FAAH; [6]) | Cmax exposure relative to URB597 [4] | AUC [4, 7] | clearance [4, 8] | Vd [4, 8] | half-life [4, 9] | improvement in oral exposure maximums compared to URB597 [4] | Kp at 0.5 h [4, 10] | Kp at 1 h [4, 10] | Tmax [4, 11] | AUC [4, 12] | Cmax [4, 13] | Cmax [4, 14] | half-life [4, 15] | Co ([4]; rat (SD, male), IV 1.0 mg/kg) | further results
NC(=O)c1cccc(-c2cccc(OC(=O)NC3CCCCC3)c2)c1 [URB597, reference compound] | 47 min | > 50 µM | 2.8 µM (≈ 0.948 µg/mL) | – | – | – | – | – | – | – | – | – | – | – | – | – | – | – | – | – | Cmax [2]: ~0.2 µg/mL
O=C(NC1CCCCC1)Oc1ccc(O)c(-c2cncc(-c3nnco3)c2)c1 [Example 158, 3-(5-(1,3,4-oxadiazol-2-yl)pyridin-3-yl)-4-hydroxyphenyl cyclohexylcarbamate] | 350 min | > 50 µM | 92.5 µM (≈ 35.2 µg/mL) | improved plasma stability, improved aqueous solubility, or improved plasma stability and aqueous solubility | 0.127 µM | 0.124 µM | ~10 × | 1.34 µg·h/mL | 0.72 L/h/kg | 0.62 L/kg | 0.31 h | ~250 × | 0.01 | 0.02 | 30 min | 7.05 µg·h/mL | 5.05 µM | 1920 ng/mL | 2.85 h | 4829 ng/mL | bioavailability ([4]; male, Sprague Dawley, rat, plasma, oral, 10 mg/kg, rat, PO 10.0 mg/kg vs IV 1.0 mg/kg, read-out: F (%) oral bioavailability): 53%; Co [uM] ([4]; rat (SD, male), IV 1.0 mg/kg): [12.7 uM]; AUC0-Y (ng h/mL), PO ([4]; rat, PO 10.0 mg/kg): 7.054 µg·h/mL; t1/2 (h), PO ([4]; rat, PO 10.0 mg/kg): 2.85 h; F (%) oral bioavailability [4, 16]: > 50%
COc1ccc(OC(=O)NC2CCCCCC2)cc1-c1cncc(-c2nnco2)c1 [Example 172, 3-(5-(1,3,4-oxadiazol-2-yl)pyridin-3-yl)-4-methoxyphenyl cycloheptylcarbamate] | 361 min | > 10 µM | 16.2 µM (≈ 6.62 µg/mL) | improved plasma stability, improved aqueous solubility, or improved plasma stability and aqueous solubility | 0.112 µM | 0.112 µM | ~10 × | 0.424 µg·h/mL | 2.4 L/h/kg | 1.58 L/kg | 0.8 h | ~250 × | 0.15 | 0.19 | 30 min | 5.26 µg·h/mL | 5.91 µM | 2250 ng/mL | 1.25 h | 1528 ng/mL | Kp at 0.5 h [4, 17]: 0.15; Kp at 1 h [4, 17]: 0.19; Kp ([4]; male, Sprague Dawley, brain, rat, time not stated, read-out: Brain/Plasma ratio): > 0.15; Co [uM] ([4]; rat (SD, male), IV 1.0 mg/kg): [4.02 uM]; AUC0-Y (ng h/mL), PO ([4]; rat, PO 10.0 mg/kg): 5.257 µg·h/mL; F (%) oral bioavailability [4, 16]: >100%
